Measured values published in PubChem BioAssay AID256 (DTP/NCI, 2004).
Inconclusive results and toxic doses are left out. Rule for the calls: active = survival T/C of 150% or more; inactive = T/C below 125% in these data.

Tested on: CD2F1 mice, L1210 leukemia ip, survival T/C
Assay: NCI In Vivo Anticancer Drug Screen. Data for tumor model L1210 Leukemia (intraperitoneal) in CD2F1 (CDF1) mice
Settings: endpoint: mean survival time, higher = longer survival
Procedure, shortened: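 In this screen, transplantable tumors were grown in mice given either the compound or its vehicle. Results were expressed as the treated measurement relative to the control measurement.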

[1] = dose: 12.5 mg/kg/injection, schedule: Q01DX009 (ip), vehicle: saline with Tween-80
[2] = dose: 25.0 mg/kg/injection, schedule: Q01DX009 (ip), vehicle: saline with Tween-80
[3] = dose: 50.0 mg/kg/injection, schedule: Q01DX009 (ip), vehicle: saline with Tween-80
[4] = dose: 100.0 mg/kg/injection, schedule: Q04DX003 (ip), vehicle: saline with Tween-80
[5] = dose: 100.0 mg/kg/injection, schedule: Q01DX009 (ip), vehicle: saline with Tween-80
[6] = dose: 200.0 mg/kg/injection, schedule: Q04DX003 (ip), vehicle: saline with Tween-80
[7] = dose: 200.0 mg/kg/injection, schedule: Q01DX009 (ip), vehicle: saline with Tween-80
[8] = dose: 400.0 mg/kg/injection, schedule: Q01DX009 (ip), vehicle: saline with Tween-80
[9] = dose: 400.0 mg/kg/injection, schedule: Q04DX003 (ip), vehicle: saline with Tween-80

Measured: T/C

CC(C)NCCCC(=O)O
inactive: dose: 12.5 mg/kg/injection, schedule: Q01DX009 (ip), vehicle: water 96 % of control | dose: 25.0 mg/kg/injection, schedule: Q01DX009 (ip), vehicle: water 98 % of control | dose: 50.0 mg/kg/injection, schedule: Q01DX009 (ip), vehicle: water 90 % of control | dose: 100.0 mg/kg/injection, schedule: Q01DX009 (ip), vehicle: water 98 % of control | dose: 200.0 mg/kg/injection, schedule: Q01DX009 (ip), vehicle: water 95 % of control

O=C(O)c1cccc(N=Nc2ccc(N(CCCl)CCCl)cc2)c1
inactive: dose: 10.0 mg/kg/injection, schedule: Q01DX009 (ip), vehicle: Klucel (hydroxypropylcellulose) (HPC) 121 % of control | dose: 20.0 mg/kg/injection, schedule: Q01DX009 (ip), vehicle: Klucel (hydroxypropylcellulose) (HPC) 97 % of control | dose: 40.0 mg/kg/injection, schedule: Q01DX009 (ip), vehicle: Klucel (hydroxypropylcellulose) (HPC) 89 % of control

COCCOCCN1CCN(CCCN2c3ccccc3Sc3ccc(C(F)(F)F)cc32)CC1
inactive: dose: 37.5 mg/kg/injection, schedule: Q04DX003 (ip), vehicle: saline 113 % of control | dose: 50.0 mg/kg/injection, schedule: Q04DX003 (ip), vehicle: saline 121 % of control

O=C(CCl)N1CCC2(CC1)SSC1(CCN(C(=O)CCl)CC1)S2
inactive: [1] 94 % of control | [2] 93 % of control | dose: 25.0 mg/kg/injection, schedule: Q04DX003 (ip), vehicle: saline with Tween-80 89 % of control | [3] 97 % of control | dose: 50.0 mg/kg/injection, schedule: Q04DX003 (ip), vehicle: saline with Tween-80 100 % of control | [4] 93 % of control

C#CCCCN1CCC2(CC1)C(=O)N(C(=O)N(C)C)CN2c1ccccc1
inactive: [2] 100 % of control | [3] 96 % of control | [5] 97 % of control

Nc1ccc2c(c1)[nH]c1ccccc12
inactive: [4] 93 % of control | [6] 101 % of control

NC(=O)CC(N)C(=O)O (stereo unspecified)
inactive: dose: 50.0 mg/kg/injection, schedule: Q01DX009 (ip), vehicle: other 102 % of control | dose: 50.0 mg/kg/injection, schedule: Q01DX009 (ip), vehicle: saline 97 % of control | dose: 100.0 mg/kg/injection, schedule: Q01DX009 (ip), vehicle: other 98 % of control | dose: 100.0 mg/kg/injection, schedule: Q01DX009 (ip), vehicle: saline 101 % of control | dose: 200.0 mg/kg/injection, schedule: Q01DX009 (ip), vehicle: other 98 % of control | dose: 200.0 mg/kg/injection, schedule: Q01DX009 (ip), vehicle: saline 103 % of control | dose: 400.0 mg/kg/injection, schedule: Q01DX009 (ip), vehicle: other 104 % of control | dose: 400.0 mg/kg/injection, schedule: Q01DX009 (ip), vehicle: saline 103 % of control | dose: 800.0 mg/kg/injection, schedule: Q01DX009 (ip), vehicle: other 104 % of control | dose: 800.0 mg/kg/injection, schedule: Q01DX009 (ip), vehicle: saline 100 % of control | dose: 1600.0 mg/kg/injection, schedule: Q01DX009 (ip), vehicle: other 98 % of control | dose: 1600.0 mg/kg/injection, schedule: Q01DX009 (ip), vehicle: saline 101 % of control

Cc1ncc(CO)c(/C=N/NC(N)=S)c1O
inactive: dose: 100.0 mg/kg/injection, schedule: Q01DX001 (ip), vehicle: saline 101 % of control | dose: 200.0 mg/kg/injection, schedule: Q01DX001 (ip), vehicle: saline 100 % of control | dose: 400.0 mg/kg/injection, schedule: Q01DX001 (ip), vehicle: saline 101 % of control

Cc1cccc(S(=O)(=O)N(C)C)c1
inactive: [5] 95 % of control | [4] 94 % of control | [7] 95 % of control | [6] 92 % of control | [8] 92 % of control | [9] 96 % of control

Cc1nc(SCc2ccccc2)[nH]c(=O)c1CCO
inactive: [4] 96 % of control | [6] 96 % of control

C=C[CH2][Sn]([CH2]C=C)([CH2]CCC)[CH2]CCC
inactive: dose: 6.25 mg/kg/injection, schedule: Q01DX009 (ip), vehicle: saline with Tween-80 95 % of control | [1] 100 % of control | [2] 94 % of control

S=C(NCc1ccccc1)NCc1ccccc1
inactive: [4] 108 % of control | [6] 100 % of control | [9] 102 % of control

O=CN1CCCCC1
inactive: dose: 100.0 mg/kg/injection, schedule: Q04DX002 (ip), vehicle: saline 97 % of control | dose: 200.0 mg/kg/injection, schedule: Q04DX002 (ip), vehicle: saline 108 % of control

O=S(=O)(O)O.[NH2-].[NH2-].[Pt+2]
inactive: dose: 0.63 mg/kg/injection, schedule: Q04DX003 (ip), vehicle: dextrose 98 % of control | dose: 1.25 mg/kg/injection, schedule: Q04DX003 (ip), vehicle: dextrose 108 % of control | dose: 5.0 mg/kg/injection, schedule: Q04DX003 (ip), vehicle: dextrose 95 % of control

COc1cc(OC)c(NC(=O)NC(C)C)cc1Cl
inactive: [5] 100 % of control | [7] 96 % of control | [8] 100 % of control

O=P(O)(O)CP(=O)(O)O.[NH-]CC[NH-].[NH-]CC[NH-].[Pt+2].[Pt+2]
inactive: dose: 3.13 mg/kg/injection, schedule: Q04DX003 (ip), vehicle: distilled water + Tween-80 119 % of control | dose: 6.25 mg/kg/injection, schedule: Q04DX003 (ip), vehicle: distilled water + Tween-80 92 % of control | dose: 12.5 mg/kg/injection, schedule: Q04DX003 (ip), vehicle: distilled water + Tween-80 103 % of control | dose: 25.0 mg/kg/injection, schedule: Q04DX003 (ip), vehicle: distilled water + Tween-80 109 % of control | dose: 50.0 mg/kg/injection, schedule: Q04DX003 (ip), vehicle: distilled water + Tween-80 103 % of control | dose: 100.0 mg/kg/injection, schedule: Q04DX003 (ip), vehicle: distilled water + Tween-80 109 % of control | dose: 200.0 mg/kg/injection, schedule: Q04DX003 (ip), vehicle: distilled water + Tween-80 90 % of control

CCOC(=S)S
inactive: dose: 100.0 mg/kg/injection, schedule: Q01DX009 (ip), vehicle: saline sonified 103 % of control | dose: 100.0 mg/kg/injection, schedule: Q04DX003 (ip), vehicle: saline 96 % of control | dose: 200.0 mg/kg/injection, schedule: Q01DX009 (ip), vehicle: saline sonified 97 % of control | dose: 400.0 mg/kg/injection, schedule: Q04DX003 (ip), vehicle: saline 104 % of control

Nc1ccc(CCCCc2ccc(Cl)c(S(=O)(=O)F)c2)c(Cl)c1
inactive: [5] 95 % of control | [4] 95 % of control | [7] 92 % of control | [6] 101 % of control | [8] 94 % of control | [9] 94 % of control

Cc1nc(=S)c2ccccc2[nH]1
inactive: dose: 100.0 mg/kg/injection, schedule: Q01DX001 (ip), vehicle: Klucel (hydroxypropylcellulose) (HPC) 97 % of control | dose: 200.0 mg/kg/injection, schedule: Q01DX001 (ip), vehicle: Klucel (hydroxypropylcellulose) (HPC) 94 % of control | dose: 400.0 mg/kg/injection, schedule: Q01DX001 (ip), vehicle: Klucel (hydroxypropylcellulose) (HPC) 100 % of control

CC1(C)C2C(Br)C3OC(=O)C(C2C(=O)O)C31 (stereo unspecified)
inactive: [5] 96 % of control | [4] 91 % of control | [7] 96 % of control | [6] 96 % of control | [8] 93 % of control | [9] 91 % of control

N#CCCN=C1C=CC(=C(c2ccc(NCCC#N)cc2)c2ccccc2Cl)C=C1
inactive: dose: 200.0 mg/kg/injection, schedule: Q04DX002 (ip), vehicle: saline with Tween-80 93 % of control | dose: 400.0 mg/kg/injection, schedule: Q04DX002 (ip), vehicle: saline with Tween-80 103 % of control

CCOC(=O)CN(C=O)C(C)c1ccccc1 (stereo unspecified)
inactive: [4] 98 % of control | [6] 93 % of control | [9] 92 % of control

CNC(=O)Nc1ccc(S(N)(=O)=O)cc1
inactive: [5] 97 % of control | [7] 91 % of control | [8] 100 % of control

CSc1ccc(N2C(N)=NC(N)=NC2(C)C)cc1
inactive: dose: 25.0 mg/kg/injection, schedule: Q04DX002 (ip), vehicle: saline 95 % of control | dose: 50.0 mg/kg/injection, schedule: Q04DX002 (ip), vehicle: saline 91 % of control

COc1ccc(OC)c(NC(=O)Oc2ccc(C(=O)OCc3ccccc3)cc2)c1
inactive: [5] 101 % of control | [7] 104 % of control | [8] 104 % of control

O=[N+]([O-])O.O=[N+]([O-])O.[Cu].c1ccc(CN2CCN(Cc3ccccc3)CCN(Cc3ccccc3)CCN(Cc3ccccc3)CC2)cc1
inactive: dose: 6.25 mg/kg/injection, schedule: Q01DX001 (ip), vehicle: Klucel (hydroxypropylcellulose) (HPC) 91 % of control | dose: 12.5 mg/kg/injection, schedule: Q01DX001 (ip), vehicle: Klucel (hydroxypropylcellulose) (HPC) 94 % of control | dose: 25.0 mg/kg/injection, schedule: Q01DX001 (ip), vehicle: Klucel (hydroxypropylcellulose) (HPC) 108 % of control | dose: 50.0 mg/kg/injection, schedule: Q01DX001 (ip), vehicle: Klucel (hydroxypropylcellulose) (HPC) 100 % of control
